From paper PMC3693459 (Nuclear medicine and biology, 2009)

Columns and labels:
aromatase [1] = test: PET studies in baboon brain; settings: for brain penetration / uptake in amygdala and preoptic area (PET images): baboon brain; for brain penetration: at 2.5 min; for uptake in amygdala and preoptic area (PET images): images summed 15-90 min after injection
Measurement of log D = settings: 1-octanol / phosphate buffered saline pH 7.4
[2] = Measurement of free fraction in plasma; settings: baboon plasma, room temperature, 10 min incubation
[3] = for appearance of labeled metabolites in plasma: compared with N-1 (11C-1)
aromatase [4] = settings: cited from earlier work

With `[11CH3]n1nnc2cc(C(c3ccc(Cl)cc3)n3cncn3)ccc21` (centres unmarked) [^11C-3] the brain penetration (aromatase [1]) was 0.02-0.03 %ID/cc, the “uptake in amygdala and preoptic area (PET images)” value (aromatase [1]) was “no specific uptake in amygdala and preoptic area” and the “Log D at pH 7.4 (n=4)” value (Measurement of log D) was 2.5. The “Percent unbound in plasma (n=2)” value [2] was 8.1%, the “appearance of labeled metabolites in plasma” value ([3]; baboon plasma) was “very rapid appearance of labeled metabolites” and the “area under curve (AUC) in plasma normalized to the injected dose” value ([3]; baboon, over 90 minutes) was “similar”.
For `[11CH3]n1nc2ccc([C@H](c3ccc(Cl)cc3)n3cncn3)cc2n1` [^11C-2], the brain penetration (aromatase [1]) was 0.02-0.03 %ID/cc, the “uptake in amygdala and preoptic area (PET images)” value (aromatase [1]) was “no specific uptake in amygdala and preoptic area” and the “Log D at pH 7.4 (n=4)” value (Measurement of log D) was 2.9. For the same molecule, the “Percent unbound in plasma (n=2)” value [2] was 4.6%, the “disappearance of the parent labeled compound from plasma” value ([3]; baboon plasma) was “rapid rate of disappearance” and the “appearance of labeled metabolites in plasma” value ([3]; baboon plasma) was “very rapid appearance of labeled metabolites”.
For `N#Cc1ccc(C(c2ccc(C#N)cc2)n2cncn2)cc1` [letrozole, reference compound], the “effect of pretreatment on [N-methyl-11C]vorozole (11C-1) accumulation in brain” value (aromatase [1]; baboon, blocking dose 0.1 mg/kg, 5 min prior, all brain regions examined) was “reduced”.
In the case of `Cn1nnc2ccc([C@@H](c3ccc(Cl)cc3)n3cncn3)cc21` [(R)-vorozole], the “activity of enantiomer at aromatase” value (aromatase [4]) is given as “inactive”.
